Laboratory results taken from patent publication US20200268702A1, “METHODS OF TREATING […]” (Amarin Pharmaceuticals Ireland Limited, priority 2013, published 2020).

Test system: patients with fasting triglyceride levels >500 mg/dL
Experiment: MARINE study: 12-week placebo-controlled study of AMR101, metabolic syndrome subset
Assay type: in vivo, human
Details: 12 weeks, subjects with metabolic syndrome
Description: A multi-center, placebo-controlled randomized, double-blind, 12-week study with an open-label extension was performed to evaluate the efficacy and safety of AMR101 in patients with fasting triglyceride levels >500 mg/dL. The primary objective of the study was to determine the efficacy of AMR101 2 g daily and 4 g daily, compared to placebo, in lowering fasting TG levels in patients with fasting TG levels 500 mg/dL and 1500 mg/dL (5.65 mmol/L and 16.94 mmol/L).
The population for this study was men and women (women of childbearing potential will need to be on contraception or practice abstinence) >18 years of age with a body mass index ≤45 kg/m^2 who were not on lipid-altering therapy or were currently on lipid-altering therapy. Patients currently on statin therapy (with or without ezetimibe) were evaluated by the investigator as to whether this therapy can be safely discontinued at screening, or if it should be continued. If statin therapy (with or without ezetimibe) was to be continued, dose(s) must have been stable […] prior to randomization. Patients taking non-statin, lipid-altering medications (niacin >200 mg/day, fibrates, fish oil, other products containing omega-3 fatty acids, or other herbal products or dietary supplements with potential lipid-altering effects), either alone or in combination with statin therapy (with or without ezetimibe), must have been able to safely discontinue non-statin, lipid-altering therapy at screening.
Approximately 240 patients were randomized at approximately 50 centers in North America, South America, Central America, Europe, India, and South Africa. The study was a 58- to 60-week, Phase 3, multi-center study consisting of 3 study periods: (1) A 6- to 8-week screening period that included a diet and lifestyle stabilization and washout period and a TG qualifying period; (2) A 12-week, double-blind, randomized, placebo-controlled treatment period; and (3) A 40-week, open-label, extension period.
After confirmation of qualifying fasting TG values, eligible patients entered a 12-week, randomized, double-blind treatment period. At Visit 4 (Week 0), patients were randomly assigned to 1 of the following treatment groups: • AMR101 2 g daily, • AMR101 4 g daily, or • Placebo.
Eligible patients were randomly assigned at Visit 4 (Week 0) to receive orally AMR101 2 g daily, AMR101 4 g daily, or placebo for the 12-week double-blind treatment period. AMR101 was provided in 1 g liquid-filled, oblong, gelatin capsules. The matching placebo capsule was filled with light liquid paraffin and contained 0 g of AMR101. During the double-blind treatment period, patients took 2 capsules (AMR101 or matching placebo) in the morning and 2 in the evening for a total of 4 capsules per day. Patients in the AMR101 2 g/day treatment group received 1 AMR101 1 g capsule and 1 matching placebo capsule in the morning and in the evening. Patients in the AMR101 4 g/day treatment group received 2 AMR101 1 g capsules in the morning and evening.
The primary efficacy variable for the double-blind treatment period was percent change in TG from baseline to Week 12 endpoint. […]

## CC/C=C\C/C=C\C/C=C\C/C=C\C/C=C\CCCC(=O)OCC [AMR101, ethyl eicosapentaenoate]
2 g/day, No statins
  Apo B, Change from Baseline, %: 2.8%
  Apo B, End of Treatment, median (IQR): 121 mg/dL
  Apo B, Median % Change From Baseline vs Placebo: −1.8%
  HDL-C, Change from Baseline, %: 0.0%
  HDL-C, End of Treatment, median (IQR): 26 mg/dL
  HDL-C, Median % Change From Baseline vs Placebo: 0.3%
  LDL-C, Change from Baseline, %: 1.9%
  LDL-C, End of Treatment, median (IQR): 95 mg/dL
  LDL-C, Median % Change From Baseline vs Placebo: 2.8%
  Non-HDL-C, Change from Baseline, %: −1.1%
  Non-HDL-C, End of Treatment, median (IQR): 218 mg/dL
  Non-HDL-C, Median % Change From Baseline vs Placebo: −7.8%
  TG, Change from Baseline, %: −10.1%
  TG, End of Treatment, median (IQR): 586 mg/dL
  TG, Median % Change From Baseline vs Placebo: −17.2%
  hsCRP, Change from Baseline, %: 38.0%
  hsCRP, End of Treatment, median (IQR): 2.5 (3.10) mg/L
  hsCRP, Median % Change From Baseline vs Placebo: −7.1%
2 g/day, Statins
  Apo B, Change from Baseline, %: −0.9%
  Apo B, End of Treatment, median (IQR): 105 mg/dL
  Apo B, Median % Change From Baseline vs Placebo: −9.1%
  HDL-C, Change from Baseline, %: 0.0%
  HDL-C, End of Treatment, median (IQR): 30 mg/dL
  HDL-C, Median % Change From Baseline vs Placebo: 4.2%
  LDL-C, Change from Baseline, %: −3.8%
  LDL-C, End of Treatment, median (IQR): 77.5 mg/dL
  LDL-C, Median % Change From Baseline vs Placebo: 6.2%
  Non-HDL-C, Change from Baseline, %: 10.1%
  Non-HDL-C, End of Treatment, median (IQR): 206 mg/dL
  Non-HDL-C, Median % Change From Baseline vs Placebo: −10.9%
  TG, Change from Baseline, %: 14.5%
  TG, End of Treatment, median (IQR): 708 mg/dL
  TG, Median % Change From Baseline vs Placebo: −33.0%
  hsCRP, Change from Baseline, %: 14.3%
  hsCRP, End of Treatment, median (IQR): 1.6 (2.20) mg/L
  hsCRP, Median % Change From Baseline vs Placebo: −36.6%
2 g/day, Total
  Apo B, Change from Baseline, %: 2.5%
  Apo B, End of Treatment, median (IQR): 117 mg/dL
  Apo B, Median % Change From Baseline vs Placebo: −3.3%
  HDL-C, Change from Baseline, %: 0.0%
  HDL-C, End of Treatment, median (IQR): 28 mg/dL
  HDL-C, Median % Change From Baseline vs Placebo: 0.9%
  LDL-C, Change from Baseline, %: −2.5%
  LDL-C, End of Treatment, median (IQR): 94 mg/dL
  LDL-C, Median % Change From Baseline vs Placebo: 3.6%
  Non-HDL-C, Change from Baseline, %: 0.0%
  Non-HDL-C, End of Treatment, median (IQR): 214 mg/dL
  Non-HDL-C, Median % Change From Baseline vs Placebo: −8.3%
  TG, Change from Baseline, %: −4.3%
  TG, End of Treatment, median (IQR): 606 mg/dL
  TG, Median % Change From Baseline vs Placebo: −19.1%
  hsCRP, Change from Baseline, %: 25.1%
  hsCRP, End of Treatment, median (IQR): 2.4 (3.20) mg/L
  hsCRP, Median % Change From Baseline vs Placebo: −14.5%
4 g/day, No statins
  Apo B, Change from Baseline, %: −4.3%
  Apo B, End of Treatment, median (IQR): 123 mg/dL
  Apo B, Median % Change From Baseline vs Placebo: −9.2%
  HDL-C, Change from Baseline, %: 0.0%
  HDL-C, End of Treatment, median (IQR): 25 mg/dL
  HDL-C, Median % Change From Baseline vs Placebo: −4.2%
  LDL-C, Change from Baseline, %: −1.5%
  LDL-C, End of Treatment, median (IQR): 92 mg/dL
  LDL-C, Median % Change From Baseline vs Placebo: −2.0%
  Non-HDL-C, Change from Baseline, %: −9.9%
  Non-HDL-C, End of Treatment, median (IQR): 220 mg/dL
  Non-HDL-C, Median % Change From Baseline vs Placebo: −18.5%
  TG, Change from Baseline, %: −26.6%
  TG, End of Treatment, median (IQR): 582 mg/dL
  TG, Median % Change From Baseline vs Placebo: −28.5%
  hsCRP, Change from Baseline, %: 0.0%
  hsCRP, End of Treatment, median (IQR): 2.3 (2.30) mg/L
  hsCRP, Median % Change From Baseline vs Placebo: −78.0%
4 g/day, No statins, listed as IPE
  hsCRP, Median % Change From Baseline vs Placebo: −27.6%
4 g/day, Statins
  Apo B, Change from Baseline, %: −1.6%
  Apo B, End of Treatment, median (IQR): 100 mg/dL
  Apo B, Median % Change From Baseline vs Placebo: −9.0%
  HDL-C, Change from Baseline, %: −5.2%
  HDL-C, End of Treatment, median (IQR): 29 mg/dL
  HDL-C, Median % Change From Baseline vs Placebo: 0.3%
  LDL-C, Change from Baseline, %: −11.4%
  LDL-C, End of Treatment, median (IQR): 72.5 mg/dL
  LDL-C, Median % Change From Baseline vs Placebo: −4.3%
  Non-HDL-C, Change from Baseline, %: −7.6%
  Non-HDL-C, End of Treatment, median (IQR): 172 mg/dL
  Non-HDL-C, Median % Change From Baseline vs Placebo: −27.4%
  TG, Change from Baseline, %: −29.1%
  TG, End of Treatment, median (IQR): 457 mg/dL
  TG, Median % Change From Baseline vs Placebo: −62.6%
  hsCRP, Change from Baseline, %: −35.1%
  hsCRP, End of Treatment, median (IQR): 2.7 (3.70) mg/L
  hsCRP, Median % Change From Baseline vs Placebo: −27.6%
4 g/day, Statins, listed as IPE
  hsCRP, Median % Change From Baseline vs Placebo: −78.0%
4 g/day, Total
  Apo B, Change from Baseline, %: −3.5%
  Apo B, End of Treatment, median (IQR): 120 mg/dL
  HDL-C, Change from Baseline, %: 0.0%
  HDL-C, End of Treatment, median (IQR): 26 mg/dL
  HDL-C, Median % Change From Baseline vs Placebo: −3.0%
  LDL-C, Change from Baseline, %: −4.1%
  LDL-C, End of Treatment, median (IQR): 89 mg/dL
  Non-HDL-C, Change from Baseline, %: −9.6%
  Non-HDL-C, End of Treatment, median (IQR): 207 mg/dL
  TG, Change from Baseline, %: −26.8%
  TG, End of Treatment, median (IQR): 504 mg/dL
  hsCRP, Change from Baseline, %: −2.9%
  hsCRP, End of Treatment, median (IQR): 2.4 (2.95) mg/L
4 g/day, Total, listed as IPE
  Apo B, Median % Change From Baseline vs Placebo: −9.1%
  LDL-C, Median % Change From Baseline vs Placebo: −3.2%
  Non-HDL-C, Median % Change From Baseline vs Placebo: −19.9%
  TG, Median % Change From Baseline vs Placebo: −35.0%
  hsCRP, Median % Change From Baseline vs Placebo: −40.0%
